Experimental data as given in BindingDB's records for patent US10246444 (Sabila Biosciences, 2019).

Target: Epidermal growth factor receptor [T790M,L858R] (Homo sapiens, UniProt P00533, L858R/T790M)
Assay: Kinase assay
Experimental: The assay is performed by combining three components: DNA-tagged kinase; immobilized ligand; and a test compound. The ability of the test compound to compete with the immobilized ligand is measured via quantitative PCR of the DNA tag.For most assays, kinase-tagged T7 phage strains were prepared in an E. coli host derived from the BL21 strain. E. coli were grown to log-phase and infected with T7 phage and incubated with shaking at 32° C. until lysis. The lysates were centrifuged and filtered to remove cell debris. The remaining kinases were produced in HEK-293 cells and subsequently tagged with DNA for qPCR detection. […] The liganded beads were blocked with excess biotin and washed with blocking buffer (SeaBlock (Pierce), 1% BSA, 0.05% Tween 20, 1 mM DTT) to remove unbound ligand and to reduce nonspecific binding. […] All reactions were performed in polystyrene 96-well plates in a final volume of 0.135 ml. […] The kinase concentration in the eluates was measured by qPCR.

Sequence of Epidermal growth factor receptor [T790M,L858R] (P00533 25-1210 T790M/L858R limits assumed): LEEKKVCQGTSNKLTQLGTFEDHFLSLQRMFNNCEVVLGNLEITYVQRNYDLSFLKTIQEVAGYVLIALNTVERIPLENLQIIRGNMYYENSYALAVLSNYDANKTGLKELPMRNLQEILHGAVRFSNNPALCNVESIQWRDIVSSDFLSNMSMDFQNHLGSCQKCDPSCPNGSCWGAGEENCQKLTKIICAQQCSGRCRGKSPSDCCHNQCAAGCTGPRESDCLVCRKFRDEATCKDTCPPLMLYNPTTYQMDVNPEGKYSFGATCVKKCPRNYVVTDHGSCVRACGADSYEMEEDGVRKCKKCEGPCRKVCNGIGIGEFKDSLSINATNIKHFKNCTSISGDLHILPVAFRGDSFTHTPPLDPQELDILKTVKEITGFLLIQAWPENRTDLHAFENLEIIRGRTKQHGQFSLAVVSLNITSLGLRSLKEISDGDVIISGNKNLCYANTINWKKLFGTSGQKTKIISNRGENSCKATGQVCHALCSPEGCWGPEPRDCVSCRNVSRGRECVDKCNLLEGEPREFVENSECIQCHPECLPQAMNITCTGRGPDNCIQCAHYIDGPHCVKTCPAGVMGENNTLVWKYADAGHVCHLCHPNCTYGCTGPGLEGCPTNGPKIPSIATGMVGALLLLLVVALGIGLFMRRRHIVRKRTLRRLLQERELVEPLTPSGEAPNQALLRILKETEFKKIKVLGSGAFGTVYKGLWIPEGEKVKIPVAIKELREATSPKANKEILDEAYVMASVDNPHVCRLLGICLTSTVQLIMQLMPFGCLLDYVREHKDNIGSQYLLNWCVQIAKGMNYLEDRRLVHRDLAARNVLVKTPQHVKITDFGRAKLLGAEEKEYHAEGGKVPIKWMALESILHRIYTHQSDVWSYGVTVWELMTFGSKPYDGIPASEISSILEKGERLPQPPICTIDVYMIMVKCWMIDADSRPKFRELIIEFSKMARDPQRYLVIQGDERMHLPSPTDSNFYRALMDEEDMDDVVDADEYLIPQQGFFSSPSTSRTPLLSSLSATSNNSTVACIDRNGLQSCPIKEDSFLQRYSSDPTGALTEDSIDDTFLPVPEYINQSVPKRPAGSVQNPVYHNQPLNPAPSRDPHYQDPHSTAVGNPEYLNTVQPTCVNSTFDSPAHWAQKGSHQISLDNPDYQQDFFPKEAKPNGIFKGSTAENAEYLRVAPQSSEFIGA

- Kd: > 10 µM
Compound: CCOc1cc2ncc(C#N)c(Nc3ccc(OCc4cccc(F)c4)c(Cl)c3)c2cc1NC(=O)CC1CCSS1 (stereo unspecified) [US10246444, Example 40]
